We go through 12 compounds from ChEMBL document CHEMBL1201862, “PubChem BioAssay data set” (2004).

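Grown in 96-well plates, cells were treated for 48 hours with each compound at five concentrations. Insufficient inhibition: endpoint recorded as highest concentration tested. Abbreviation: GI50, concentration required for 50% inhibition of growth.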 Calls of active or inactive are those of the source. No stated cut-off is given here; in the data, active = GI50 up to about 1.1 µM and inactive = higher. Where only a bound is given, the exact number is not on record here.

Test systems include NCI-H226; OVCAR-8; EKVX; M14; T47D; A549; SN12C; MDA-MB-435; KM12; SK-OV-3; SW-620; Malme-3M; DU-145; SNB-19; SK-MEL-2; Hs-578T.
What all share (assay): NCI anticancer screen, dose series, 48 h

For the compound `NS(=O)(=O)c1ccc(NNc2c3ccccc3nc3c(C(=O)Nc4ccc(S(=O)(=O)Nc5ncccn5)cc4)cccc23)cc1`, the GI50 in the test on NCI-H226, in the test on OVCAR-8, in the test with EKVX, with M14, in the test on T47D and in the test with A549 was > 25 µM (inactive) in each case. Further, the GI50 with SN12C, in the test on MDA-MB-435, with KM12, with SK-OV-3, with SW-620 and in the test on Malme-3M was > 25 µM (inactive) throughout. Besides, the GI50 in the test with DU-145, in the test with SNB-19, in the test on SK-MEL-2 and in the test with Hs-578T was > 25 µM (inactive) each time.
Regarding `Oc1ccccc1/C=N/c1ccc(-c2nc3ccccc3s2)cc1`, the GI50 in the test with NCI-H226 is 24.8 µM (inactive); in the test with OVCAR-8 it was 28.6 µM (inactive); with EKVX, 21.3 µM (inactive); in the test on M14 it was 37.1 µM (inactive); in the test on T47D it was 10.4 µM (inactive); in the test with A549 it was 36.7 µM (inactive). Besides, the GI50 in the test on SN12C is 29.3 µM (inactive); in the test on MDA-MB-435 it was 26.6 µM (inactive); with KM12, 22 µM (inactive); in the test with SK-OV-3, 27.2 µM (inactive); in the test on SW-620, 41.5 µM (inactive); in the test with Malme-3M, 37.1 µM (inactive). The GI50 with DU-145 was 45.7 µM (inactive); in the test with SNB-19, 48.4 µM (inactive); in the test on SK-MEL-2 it was 21.3 µM (inactive); with Hs-578T, 30.7 µM (inactive).
As for `Brc1ccc2c([C@H]3CN[C@@H](c4c[nH]c5cc(Br)ccc45)CN3)c[nH]c2c1`, the GI50 in the test on NCI-H226 was 7.26 µM (inactive); with OVCAR-8, 1.84 µM (inactive); with EKVX, 10.5 µM (inactive); in the test with M14, 2.24 µM (inactive); in the test on T47D, 5.47 µM (inactive); with A549, 2.8 µM (inactive). Besides, the GI50 in the test with SN12C is 5.19 µM (inactive); in the test with MDA-MB-435, 1.72 µM (inactive); with KM12 it was 1.7 µM (inactive); in the test with SK-OV-3 it was 8.99 µM (inactive); with SW-620 it was 1.71 µM (inactive); in the test with Malme-3M, 2.56 µM (inactive). Further, the GI50 was 2.96 µM (inactive) in the test on DU-145, 9.14 µM (inactive) in the test with SNB-19, 5.07 µM (inactive) in the test with SK-MEL-2 and 7.62 µM (inactive) in the test on Hs-578T.
Turning to `CN(C)c1ccc(C=c2c3ccccc3n3c2c2ccccc2[n+]3C)cc1`, the GI50 was 3.08 µM (inactive) in the test on NCI-H226; 0.364 µM (active) in the test with OVCAR-8; 2.65 µM (inactive) with EKVX; 0.493 µM (active) in the test with M14; 0.248 µM (active) in the test with T47D; 3.73 µM (inactive) with A549. The GI50 in the test with SN12C is 0.518 µM (active); in the test on MDA-MB-435, 0.428 µM (active); with KM12, 1.01 µM (active); in the test with SK-OV-3, 2.64 µM (inactive); in the test with SW-620, 0.164 µM (active); in the test on Malme-3M, 0.392 µM (active). The GI50 was 1.3 µM (inactive) with DU-145, 1.25 µM (inactive) with SNB-19, 0.258 µM (active) in the test with SK-MEL-2 and 0.635 µM (active) with Hs-578T.
`O=C1c2ccccc2C(=O)c2c(Nc3cc4c5c(ccc6c7ccc8c9c(cc(Nc%10cccc%11c%10C(=O)c%10ccccc%10C%11=O)c(c3c56)c97)-c3ccccc3C8=O)C(=O)c3ccccc3-4)cccc21`: the GI50 in the test with NCI-H226 was > 100 µM (inactive); in the test on OVCAR-8, 25 µM (inactive); in the test on EKVX it was 40.6 µM (inactive); with M14, > 100 µM (inactive); with T47D, > 100 µM (inactive); in the test on A549, 61.7 µM (inactive). The GI50 was > 100 µM (inactive) with SN12C; 41.1 µM (inactive) in the test with MDA-MB-435; > 100 µM (inactive) in the test on KM12; 16.6 µM (inactive) in the test on SK-OV-3; > 100 µM (inactive) with SW-620; > 100 µM (inactive) with Malme-3M. Also, the GI50 with DU-145 is > 100 µM (inactive); in the test with SNB-19, 29.9 µM (inactive); in the test on SK-MEL-2, 53.6 µM (inactive); with Hs-578T it was 18.1 µM (inactive).
With `C=C1CC(Cn2cc(C)c(=O)[nH]c2=O)(c2ccc(-c3ccccc3)cc2)OC1=O` (stereo not given), the GI50 was 14.3 µM (inactive) in the test on NCI-H226; 1.95 µM (inactive) in the test with OVCAR-8; 6.62 µM (inactive) in the test on EKVX; 1.1 µM (active) with M14; 1.99 µM (inactive) in the test on T47D; 8.49 µM (inactive) in the test on A549. Also, the GI50 with SN12C is 2.54 µM (inactive); with MDA-MB-435 it was 1.8 µM (inactive); in the test with KM12 it was 2.31 µM (inactive); in the test with SK-OV-3, 6.53 µM (inactive); in the test on SW-620 it was 0.546 µM (active); with Malme-3M, 2.11 µM (inactive). The GI50 in the test on DU-145 was 2.35 µM (inactive); in the test on SNB-19, 13.8 µM (inactive); in the test on SK-MEL-2, 1.94 µM (inactive); in the test with Hs-578T it was 6.55 µM (inactive).
Consider `CCC1CN(C(=O)c2ccccc2)C(Cc2c[nH]c3ccccc23)C(=O)C1CC(=O)OC` (stereo not given), for which the GI50 is > 100 µM (inactive) in the test on NCI-H226; 79.6 µM (inactive) in the test on OVCAR-8; 77.4 µM (inactive) with EKVX; 58.6 µM (inactive) in the test with M14; > 100 µM (inactive) in the test on T47D; > 100 µM (inactive) in the test with SN12C. The GI50 was > 100 µM (inactive) with MDA-MB-435; 59.2 µM (inactive) with KM12; > 100 µM (inactive) in the test on SK-OV-3; > 100 µM (inactive) with SW-620; 55.6 µM (inactive) in the test on Malme-3M; > 100 µM (inactive) with DU-145. For the same compound, the GI50 in the test with SK-MEL-2 was > 100 µM (inactive); in the test with Hs-578T, 51.8 µM (inactive).
Regarding `Cn1c(SCc2c[nH]c3ccccc23)nnc1-c1ccc(Cl)cc1Cl`, the GI50 in the test with OVCAR-8 is 21.2 µM (inactive); with EKVX it was 15.3 µM (inactive); in the test with M14, 11.4 µM (inactive); in the test on T47D, 12.7 µM (inactive); in the test with A549 it was 17.5 µM (inactive); with SN12C, 17.1 µM (inactive). The GI50 in the test on MDA-MB-435 was 3 µM (inactive); with KM12, 9.82 µM (inactive); in the test on SK-OV-3 it was 15.9 µM (inactive); with SW-620 it was 19.5 µM (inactive); with Malme-3M it was 18.9 µM (inactive); in the test on DU-145, 17.6 µM (inactive). Also, the GI50 with SNB-19 is 16.8 µM (inactive); in the test on SK-MEL-2, 12.3 µM (inactive); in the test with Hs-578T, 19.7 µM (inactive).
On to `Cc1cc(O)cc(O)c1/N=N/c1ccc([N+](=O)[O-])cc1`, for which the GI50 in the test on OVCAR-8 was 17.9 µM (inactive); in the test with EKVX it was 22.3 µM (inactive); in the test with M14, 22.5 µM (inactive); with T47D it was 9.14 µM (inactive); in the test on A549, 30.1 µM (inactive); in the test on SN12C it was 5.71 µM (inactive). Besides, the GI50 in the test with MDA-MB-435 is 13.8 µM (inactive); in the test with KM12 it was 22.6 µM (inactive); with SK-OV-3, > 100 µM (inactive); in the test on SW-620, 5.96 µM (inactive); with Malme-3M it was 20.2 µM (inactive); in the test on DU-145 it was 22.9 µM (inactive). The GI50 in the test with SNB-19 was 37.3 µM (inactive); in the test on SK-MEL-2, 15.4 µM (inactive); in the test with Hs-578T, 27.5 µM (inactive).
On to `Cn1c2ccccc2n2c(=O)c(-c3ccc(O)cc3)nnc12`, for which the GI50 with NCI-H226 is 46.6 µM (inactive); in the test on OVCAR-8, > 100 µM (inactive); in the test with EKVX, 21.2 µM (inactive); with M14, > 100 µM (inactive); in the test on T47D, > 100 µM (inactive); in the test on A549, > 100 µM (inactive). For the same compound, the GI50 with SN12C, with MDA-MB-435, in the test with KM12, with SW-620, in the test on Malme-3M and in the test with DU-145 was > 100 µM (inactive) each time. The GI50 was 80.4 µM (inactive) in the test with SNB-19, > 100 µM (inactive) in the test on SK-MEL-2 and 34.8 µM (inactive) in the test with Hs-578T.
As to `C#CCNC(CS)C(=O)O` (stereo not given), the GI50 with NCI-H226, in the test on OVCAR-8, in the test on EKVX, with M14, in the test on T47D and in the test on A549 was > 100 µM (inactive) each time. Moreover, the GI50 in the test on MDA-MB-435, with KM12, in the test with SK-OV-3, in the test on SW-620, in the test with Malme-3M and in the test with DU-145 was > 100 µM (inactive) each time. The GI50 with SNB-19, in the test on SK-MEL-2 and with Hs-578T was > 100 µM (inactive) throughout.
As to `C/C=C1/CN2CC[C@@H]3c4ccccc4N4[C@H](C(=O)OC)[C@H]1C[C@H]2[C@]34/C=C/C1=COC[C@@H]2[C@H]1C[C@H]1c3c(c4ccccc4n3C)C[C@@H]2N1C`, the GI50 with NCI-H226 was 4.5 µM (inactive); in the test on OVCAR-8, 4.11 µM (inactive); in the test with EKVX, 2.99 µM (inactive); with M14, 4.37 µM (inactive); with T47D it was 4.23 µM (inactive); in the test on A549 it was 4.16 µM (inactive). The GI50 in the test on SN12C was 4.33 µM (inactive); with MDA-MB-435, 3.26 µM (inactive); with SK-OV-3 it was 4.57 µM (inactive); in the test with SW-620, 3.83 µM (inactive); with Malme-3M, 4.62 µM (inactive); in the test on DU-145, 5.12 µM (inactive). In addition, the GI50 was 3.64 µM (inactive) in the test on SNB-19, 4.33 µM (inactive) with SK-MEL-2 and 4.48 µM (inactive) in the test on Hs-578T.
